What was measured:
α2A-AR [1] = molecular target: T1, α2A-AR (Homo sapiens, UniProt P08913); experiment: TRUPATH BRET2 G-protein activation; format: cell-based; settings: agonist; Gi1, GoA, Gz
T1 sequence (P08913 1-465): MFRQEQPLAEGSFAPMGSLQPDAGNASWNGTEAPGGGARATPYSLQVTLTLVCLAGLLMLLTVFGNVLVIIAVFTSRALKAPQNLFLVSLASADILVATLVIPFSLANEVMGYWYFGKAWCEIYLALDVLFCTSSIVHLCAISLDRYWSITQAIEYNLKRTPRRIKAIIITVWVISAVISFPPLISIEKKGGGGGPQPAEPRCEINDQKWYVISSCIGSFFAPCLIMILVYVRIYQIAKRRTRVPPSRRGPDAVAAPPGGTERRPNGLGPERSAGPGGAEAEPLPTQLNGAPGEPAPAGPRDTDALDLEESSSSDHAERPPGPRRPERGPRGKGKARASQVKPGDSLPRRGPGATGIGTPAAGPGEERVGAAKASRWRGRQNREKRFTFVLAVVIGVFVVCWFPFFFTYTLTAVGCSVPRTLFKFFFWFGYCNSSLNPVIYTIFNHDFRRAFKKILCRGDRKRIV

[2] = molecular target: T2, kappa opioid receptor (κOR) (Homo sapiens, UniProt P41145); experiment: Gi-GloSensor cAMP assay; format: cell-based
[3] = molecular target: T2, kappa opioid receptor (κOR); experiment: Gi-GloSensor cAMP assay; format: cell-based; remark: listed apart in the source
[4] = molecular target: T2, kappa opioid receptor (κOR); experiment: radioligand competition binding, 3H-U69593
α2A-AR [5] = molecular target: T1, α2A-AR; experiment: radioligand competition binding; settings: panel labelled α2-AR
α2A-AR [6] = molecular target: T1, α2A-AR; experiment: Gi-GloSensor cAMP assay; format: cell-based; settings: read-out: potency (pEC50) (converted); full agonist; printed pEC50 of 7.47

SMILES	pEC50 (α2A-AR [1])	pEC50 ([2]; agonist)	pEC50 ([2]; partial agonist)	EC50 [3]	Ki [4]	pKi (α2A-AR [5])	EC50 (α2A-AR [6])
Cc1ccc(O)c(C)c1NC1=NCCCS1 [3-hydroxy-xylazine]	Xylazine, its metabolites, as well as other relevant adrenergic agonists exhibited agonist activity at α2A-AR	3-hydroxy-xylazine was as efficacious, though less potent, as xylazine and salvinorin A					
Cc1cc(O)cc(C)c1NC1=NCCCS1 [4-hydroxy-xylazine]	Xylazine, its metabolites, as well as other relevant adrenergic agonists exhibited agonist activity at α2A-AR		4-hydroxy-xylazine was less efficacious at κOR overall				
Cc1cccc(C)c1NC1=NCCCS1 [xylazine]				1400 nM	470 nM	Radioligand competitive binding assay confirms xylazine activity at κOR (A) and α2-AR (B)	34 nM
